From patent publication US9795567B2, “Immediate release formulations and dosage forms of gamma-hydroxybutyrate” (Jazz Pharmaceuticals, Inc., priority 2008, dated 2017)

Tests used:
[1] = in man, given orally; cited from earlier work
[2] = tested on: patients with hyperkinetic movement disorders including ethanol responsive myoclonus and essential tremor; settings: five patients, open label; cited from earlier work
[3] = Plasma pharmacokinetics of sodium oxybate given orally (background and definition statements); settings: human, oral

O=C(O)CCCO [sodium oxybate, Sodium gamma-hydroxybutyrate]
plasma half-life [1]: about 45 minutes | blinded ratings of ethanol responsive myoclonus and tremor [2]: dose-dependent improvements | tolerability [2]: tolerated at doses that provided clinical benefit | Tmax [3]: 30 to 150 min | half-life [3]: 24 to 54 min
